Molecules are shown by their SMILES.

Our source for the GI50 values is patent publication US20240228458A1, “PYRIMIDINE DERIVATIVE HAVING PROTEIN KINASE INHIBITORY ACTIVITY, AND THERAPEUTIC PHARMACEUTICAL COMPOSITION COMPRISING SAME” (THERAPEX CO., LTD., priority 2021, published 2024).

What all share (type): cell-based
Assay [1] relates to Ba/F3 cells expressing EGFR-wt. Nature of the assay: Growth inhibition (GI50) of Ba/F3 cells expressing EGFR-wt, Celltiter glo. Conditions: Mus musculus, BaF3, 72 h. In short, it runs like this: (§1)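 Viability read by CellTiter-Glo after 72 h compound exposure (37 °C, 5% CO2) of variant-expressing Ba/F3 cells plated at 100,000 cells/ml. Dosing 4 h post-seeding; 10-pt 4-fold series from 2 mM stock; 0.5% DMSO. GI50 = molar concentration (μM) giving half-maximal growth inhibition.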
For orientation: Cellular ATP, detected with luciferase, serves as a proxy for viable cell number.

In assay [2] the test system is Ba/F3 cells expressing del19/T790M/C797S (EGFR-DTC). Nature of the assay: Growth inhibition (GI50) of Ba/F3 cells expressing del19/T790M/C797S (EGFR-DTC), Celltiter glo. As to conditions: Mus musculus, BaF3, 72 h. In short, it runs like this:
as §1

For assay [3], the system named is Ba/F3 cells expressing L858R/T790M/C797S (EGFR-LTC). Nature of the assay: Growth inhibition (GI50) of Ba/F3 cells expressing L858R/T790M/C797S (EGFR-LTC), Celltiter glo. Conditions: Mus musculus, BaF3, 72 h. The gist of the method: as §1
Assay [4] concerns Ba/F3 cells expressing del19/T790M (EGFR-DT). The assay can be described thus: Growth inhibition (GI50) of Ba/F3 cells expressing del19/T790M (EGFR-DT), Celltiter glo. As to conditions: Mus musculus, BaF3, 72 h. The gist of the method:
as §1

Assay [5] concerns Ba/F3 cells expressing L858R/T790M (EGFR-LT). The assay can be described thus: Growth inhibition (GI50) of Ba/F3 cells expressing L858R/T790M (EGFR-LT), Celltiter glo. Conditions: Mus musculus, BaF3, 72 h. The gist of the method: as §1
Assay [6] deals with parental Ba/F3 cell line. Nature of the assay: Growth inhibition (GI50) of the parental Ba/F3 cell line (not introduced with EGFR variants), Celltiter glo. Conditions: Mus musculus, BaF3, 72 h, parental Ba/F3 cells. In short, it runs like this: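 Viable cell count by CellTiter-Glo after 72 h at 37 °C gave GI50 values (μM, 50% growth inhibition). Cells lacking EGFR variants were seeded at 100,000 cells/ml and dosed 4 h later with 4-fold serial dilutions from a 2 mM stock, 0.5% DMSO.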

On to `COc1cc(N2CCC(N3CCCC(N(C)C)C3)CC2)c(C)cc1Nc1ncc(Br)c(Nc2ccc(F)cc2NS(C)(=O)=O)n1` (stereo not drawn) [Example 39, N-(2-((5-bromo-2-((4-(3-(dimethylamino)-[1,4′-bipiperidin]-1′-yl)-2-methoxy-5-methylphenyl)amino)pyrimidin-4-yl)amino)-5-fluorophenyl)methanesulfonamide], for which the 50% growth inhibitory concentration (GI50) in assay [1] lay within 100 to 500 nM; in assay [2], 1 to 25 nM; in assay [3], 1 to 25 nM; in assay [4] it was 100 to 500 nM; in assay [5], 25 to 100 nM; in assay [6], 500 to 2000 nM.
Consider `COc1cc(N2CCC(N3CCN(C)CC3)CC2)c(C)cc1Nc1ncc(Cl)c(Nc2cc(C(C)C)ccc2NS(C)(=O)=O)n1` [Example 160, N-(2-((5-chloro-2-((2-methoxy-5-methyl-4-(4-(4-methylpiperazin-1-yl)piperidin-1-yl)phenyl)amino)pyrimidin-4-yl)amino)-4-isopropylphenyl)methanesulfonamide], for which the GI50 lay in the range of 500 to 2000 nM in assay [1]; 25 to 100 nM in assay [2]; 100 to 500 nM in assay [3]; 100 to 500 nM in assay [4]; 100 to 500 nM in assay [5]; 2000 to 10000 nM in assay [6].
Consider `COc1ccc(N(C)S(C)(=O)=O)c(Nc2nc(Nc3cc(C)c(N4CCC(N5CCN(C)CC5)CC4)cc3OC)ncc2Cl)c1` [Example 260, N-(2-((5-chloro-2-((2-methoxy-5-methyl-4-(4-(4-methylpiperazin-1-yl)piperidin-1-yl)phenyl)amino)pyrimidin-4-yl)amino)-4-methoxyphenyl)-N-methylmethanesulfonamide], for which the GI50 in assay [1] is 100 to 500 nM; in assay [2], 100 to 500 nM; in assay [3] it was 100 to 500 nM; in assay [4], 1 to 25 nM; in assay [5] it was 25 to 100 nM; in assay [6], 2000 to 10000 nM.
In the case of `CCc1cc(Nc2ncc(Br)c(Nc3ccc4nccnc4c3P(C)(C)=O)n2)c(OC)cc1N1CCC(N2CCN(C)CC2)CC1` [Example 192, (6-((5-bromo-2-((5-ethyl-2-methoxy-4-(4-(4-methylpiperazin-1-yl)piperidin-1-yl)phenyl)amino)pyrimidin-4-yl)amino)quinoxalin-5-yl)dimethylphosphine oxide], the GI50 in assay [1] fell in the range of 25 to 100 nM; in assay [2] it was 1 to 25 nM; in assay [3], 1 to 25 nM; in assay [4] it was 1 to 25 nM; in assay [5], 1 to 25 nM; in assay [6] it was 100 to 500 nM.
On to `COc1nc(N2CCC(N(C)C)C2)ccc1Nc1ncc(Cl)c(Nc2ccc(F)cc2NS(C)(=O)=O)n1` (stereo not drawn) [Example 23, N-(2-((5-chloro-2-((6-(3-(dimethylamino)pyrrolidin-1-yl)-2-methoxypyridin-3-yl)amino)pyrimidin-4-yl)amino)-5-fluorophenyl)methanesulfonamide], for which the GI50 in assay [1] was in the range of 100 to 500 nM; in assay [2] it was 100 to 500 nM; in assay [3], 100 to 500 nM; in assay [4], 100 to 500 nM; in assay [5], 500 to 2000 nM; in assay [6], 100 to 500 nM.
Consider `COc1cc(N2CCC(N3CCCN(C)CC3)CC2)c(Br)cc1Nc1ncc(Cl)c(Nc2cc3c(cc2NS(C)(=O)=O)CCO3)n1` [Example 282, N-(6-((2-((5-bromo-2-methoxy-4-(4-(4-methyl-1,4-diazepan-1-yl)piperidin-1-yl)phenyl)amino)-5-chloropyrimidin-4-yl)amino)-2,3-dihydrobenzofuran-5-yl)methanesulfonamide], for which the 50% growth inhibitory concentration (GI50) was 100 to 500 nM in assay [1]; 100 to 500 nM in assay [2]; 25 to 100 nM in assay [3]; 1 to 25 nM in assay [4]; 1 to 25 nM in assay [5]; 2000 to 10000 nM in assay [6].
`CN1CCN(C2CCN(c3ncc(Nc4ncc(Cl)c(Nc5cc6c(cc5NS(C)(=O)=O)CCO6)n4)cc3F)CC2)CC1` [Example 242, N-(6-((5-chloro-2-((5-fluoro-6-(4-(4-methylpiperazin-1-yl)piperidin-1-yl)pyridin-3-yl)amino)pyrimidin-4-yl)amino)-2,3-dihydrobenzofuran-5-yl)methanesulfonamide]: the 50% growth inhibitory concentration (GI50) in assay [1] lay in the range of 2000 to 10000 nM; in assay [2] it was 2000 to 10000 nM; in assay [3], 25 to 100 nM; in assay [4], 500 to 2000 nM; in assay [5], 1 to 25 nM; in assay [6], 2000 to 10000 nM.
Take `CCc1cc(Nc2ncc(Br)c(Nc3cc4c(cc3N(C)S(C)(=O)=O)CCO4)n2)c(OC)cc1N1CCC(N2CCN(C)CC2)CC1` [Example 254, N-(6-((5-bromo-2-((5-ethyl-2-methoxy-4-(4-(4-methylpiperazin-1-yl)piperidin-1-yl)phenyl)amino)pyrimidin-4-yl)amino)-2,3-dihydrobenzofuran-5-yl)-N-methylmethanesulfonamide]: the concentration for 50% growth inhibition (GI50) was in the range of 500 to 2000 nM in assay [1]; 1 to 25 nM in assay [2]; 25 to 100 nM in assay [3]; 1 to 25 nM in assay [4]; 25 to 100 nM in assay [5]; 500 to 2000 nM in assay [6].
Consider `COc1ccc(NS(C)(=O)=O)c(Nc2nc(Nc3cc(Cl)c(N4CCC(N5CCCN(C)CC5)CC4)cc3OC)ncc2Cl)c1` [Example 229, N-(2-((5-chloro-2-((5-chloro-2-methoxy-4-(4-(4-methyl-1,4-diazepan-1-yl)piperidin-1-yl)phenyl)amino)pyrimidin-4-yl)amino)-4-methoxyphenyl)methanesulfonamide], for which the GI50 was 500 to 2000 nM in assay [1]; 25 to 100 nM in assay [2]; 100 to 500 nM in assay [3]; 1 to 25 nM in assay [4]; 25 to 100 nM in assay [5]; 2000 to 10000 nM in assay [6].
Regarding `CN1CCN(C2CCN(c3cc(Cl)c(Nc4ncc(Cl)c(Nc5cc6c(cc5NS(C)(=O)=O)CCO6)n4)cc3Cl)CC2)CC1` [Example 205, N-(6-((5-chloro-2-((2,5-dichloro-4-(4-(4-methylpiperazin-1-yl)piperidin-1-yl)phenyl)amino)pyrimidin-4-yl)amino)-2,3-dihydrobenzofuran-5-yl)methanesulfonamide], the GI50 was in the range of 25 to 100 nM in assay [1]; 1 to 25 nM in assay [2]; 1 to 25 nM in assay [3]; 1 to 25 nM in assay [4]; 1 to 25 nM in assay [5]; 2000 to 10000 nM in assay [6].
Turning to `CN1CCN(C2CCN(c3cc(Cl)c(Nc4ncc(Cl)c(Nc5cc(Cl)ccc5N(C)S(C)(=O)=O)n4)cc3Cl)CC2)CC1` [Example 226, N-(4-chloro-2-((5-chloro-2-((2,5-dichloro-4-(4-(4-methylpiperazin-1-yl)piperidin-1-yl)phenyl)amino)pyrimidin-4-yl)amino)phenyl)-N-methylmethanesulfonamide], the GI50 fell in the range of 100 to 500 nM in assay [1]; 25 to 100 nM in assay [2]; 25 to 100 nM in assay [3]; 25 to 100 nM in assay [4]; 25 to 100 nM in assay [5]; 500 to 2000 nM in assay [6].
Consider `Cc1cc(Nc2ncc(Br)c(Nc3ccc(F)cc3NS(C)(=O)=O)n2)c(Cl)cc1N1CCC(N2CCCC(N(C)C)C2)CC1` (stereo not drawn) [Example 45], for which the GI50 in assay [1] lay in the range of 500 to 2000 nM; in assay [2], 25 to 100 nM; in assay [3], 25 to 100 nM; in assay [4], 25 to 100 nM; in assay [5], 100 to 500 nM; in assay [6] it was 500 to 2000 nM.
Take `Cc1cc(Nc2ncc(Br)c(Nc3cc(Cl)ccc3N(C)S(C)(=O)=O)n2)c(Cl)cc1N1CCC(N2CCC(N(C)C)C2)CC1` (stereo not drawn) [Example 227, N-(2-((5-bromo-2-((2-chloro-4-(4-(3-(dimethylamino)pyrrolidin-1-yl)piperidin-1-yl)-5-methylphenyl)amino)pyrimidin-4-yl)amino)-4-chlorophenyl)-N-methylmethanesulfonamide]: the GI50 in assay [1] fell in the range of 1 to 25 nM; in assay [2] it was 1 to 25 nM; in assay [3] it was 25 to 100 nM; in assay [4], 1 to 25 nM; in assay [5] it was 1 to 25 nM; in assay [6] it was 100 to 500 nM.
Take `COc1cc(N2CCC(N3CCN(C)CC3)CC2)c(C)cc1Nc1ncc(Br)c(Nc2ccccc2N=S(C)(C)=O)n1` [Example 142]: the GI50 was in the range of 500 to 2000 nM in assay [1]; 100 to 500 nM in assay [2]; 25 to 100 nM in assay [3]; 500 to 2000 nM in assay [4]; 500 to 2000 nM in assay [5]; 500 to 2000 nM in assay [6].
Take `CCc1cc(Nc2ncc(Cl)c(Nc3ccc4nccnc4c3P(C)(C)=O)n2)c(OC)cc1N1CCC(N2CCN(C)CC2)CC1` [Example 190, (6-((5-chloro-2-((5-ethyl-2-methoxy-4-(4-(4-methylpiperazin-1-yl)piperidin-1-yl)phenyl)amino)pyrimidin-4-yl)amino)quinoxalin-5-yl)dimethylphosphine oxide]: the 50% growth inhibitory concentration (GI50) in assay [1] lay within 100 to 500 nM; in assay [2], 25 to 100 nM; in assay [3], 25 to 100 nM; in assay [4] it was 1 to 25 nM; in assay [5] it was 1 to 25 nM; in assay [6], 100 to 500 nM.
Consider `Cc1cc(Nc2ncc(Br)c(Nc3cc(Cl)ccc3NS(C)(=O)=O)n2)c(Cl)cc1N1CCC(N2CCCN(C)CC2)CC1` [Example 97, N-(2-((5-bromo-2-((2-chloro-5-methyl-4-(4-(4-methyl-1,4-diazepan-1-yl)piperidin-1-yl)phenyl)amino)pyrimidin-4-yl)amino)-4-chlorophenyl)methanesulfonamide], for which the concentration for 50% growth inhibition (GI50) in assay [1] lay within 500 to 2000 nM; in assay [2], 25 to 100 nM; in assay [3] it was 1 to 25 nM; in assay [4], 25 to 100 nM; in assay [5], 25 to 100 nM; in assay [6] it was 500 to 2000 nM.

As a reminder, the GI50 is the concentration at which growth is held to half of that of the control.
